# According to publication PMC7370187, “Screening of an Epigenetic Drug Library Identifies 4-((hydroxyamino)carbonyl)-N-(2-hydroxyethyl)-N-Phenyl-Benzeneacetamide that Reduces Melanin Synthesis by Inhibiting Tyrosinase Activity Independently of Epigenetic Mechanisms” (International Journal of Molecular Sciences, 2020):
# Entries after “also recorded” stand apart in the source; their conditions may differ.
# Tests used:
# [1] = system: cellular melanin production; design: method as in earlier work; conditions: ref [55] Baek et al.; cited from earlier work
# mushroom TYR = system: mushroom TYR; design: method as in earlier work; conditions: ref [55] Baek et al.; read-out: IC50, catalytic activity of mushroom TYR in vitro; cited from earlier work
# [2] = system: B16-F10 murine melanoma cells; experiment: Screening assay for overall melanin synthesis (OD 400 nm) in α-MSH-stimulated cells; format: cell-based; conditions: 100 nM α-MSH, 72 h; for relative melanin synthesis (OD 400 nm): drug 1.0 μM
# Method: For the screening assay, B16-F10 cells were plated in 96-well plates (3 × 10^3 cells per well) and cultured for 24 h. The cells were then treated with a test drug at 1.0 μM for 60 min, and subsequently stimulated with 0.1 μM α-MSH for 72 h. Overall melanin synthesis was estimated by measuring the absorbance of each well (cells plus medium, without cell lysis) at 400 nm using a Spectrostar Nano microplate reader (BMG LABTECH GmbH, Ortenberg, Germany).
# human TYR [3] = target: T1, human TYR (Homo sapiens, UniProt P14679); experiment: In vitro TYR catalytic activity assay, lysate of HEK293-TYR cells; format: biochemical; conditions: each drug at 1.0 μM, library screening
# T1 construct: expressed in transfected cells; Triton X-100 lysate supernatant
# T1 sequence (P14679 19-529): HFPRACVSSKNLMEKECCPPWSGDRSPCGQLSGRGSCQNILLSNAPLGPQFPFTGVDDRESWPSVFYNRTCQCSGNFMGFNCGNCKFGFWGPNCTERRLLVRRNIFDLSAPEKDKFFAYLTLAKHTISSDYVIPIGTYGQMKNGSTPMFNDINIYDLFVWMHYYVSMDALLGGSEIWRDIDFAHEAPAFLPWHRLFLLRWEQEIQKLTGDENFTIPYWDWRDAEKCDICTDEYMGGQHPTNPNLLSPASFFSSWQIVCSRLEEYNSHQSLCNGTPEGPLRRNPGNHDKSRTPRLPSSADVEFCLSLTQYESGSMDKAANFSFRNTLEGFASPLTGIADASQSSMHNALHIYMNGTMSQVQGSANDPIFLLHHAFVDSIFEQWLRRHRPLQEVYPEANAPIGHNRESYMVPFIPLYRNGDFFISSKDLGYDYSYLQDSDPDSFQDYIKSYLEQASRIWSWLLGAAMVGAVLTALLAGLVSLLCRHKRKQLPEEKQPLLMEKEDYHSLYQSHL
# Method: (§1) To examine the direct effect of a drug on the catalytic activity of TYR, in vitro experiments were undertaken. Lysate of B16F10 cells stimulated with α-MSH for 24 h was used as a murine TYR preparation. Human TYR preparation was the lysate of human embryonic kidney 293 cells constitutively expressing human TYR (HEK293-TYR). […] The TYR activity assay mixture (200 μL) consisted of 100 mM sodium phosphate buffer (pH 6.8), TYR preparation (40 μg protein), a drug at various concentrations, 1.0 mM L-tyrosine, and 42 μΜ L-DOPA. For enzyme kinetic study, the concentrations of L-tyrosine plus L-DOPA were varied while their relative ratio was kept the same as the standard assay condition. […] The reactions were also performed in the absence of a TYR preparation to correct for the effects of non-enzymatic reactions. Enzyme activity was calculated as follows: activity (% control) = (C−D)/(A−B) × 100, where A and B are the absorbance changes of the control group with and without enzyme, respectively, while C and D are the absorbance changes of the test group with and without enzyme, respectively.
# B16-F10 cells = experiment: Cell viability assay (MTT); format: cell-based, murine; conditions: 48 h; for relative viability: drug 1.0 μM
# Method: Cell viability was evaluated using 3-(4,5-dimethylthiazol-2-yl)-2,5-diphenyltetrazolium bromide (MTT). After treatment of B16-F10 cells with each drug for 48 h, cells were washed with phosphate-buffered saline (PBS) and incubated for 2 h in the culture medium containing 1 mg∙mL^−1 MTT (Amresco, Solon, OH, USA). The medium was discarded by aspiration, the formazan dye deposited inside the cells was extracted with isopropanol, and absorbance was measured at 595 nm using a Spectrostar Nano microplate reader.
# [4] = Copper chelating activity assay (pyrocatechol violet); format: physicochemical; conditions: 200 μM test compound, 200 μM copper ions, 200 μM pyrocatechol violet, absorbance 632 nm
# Method: Copper chelating activity was determined by using pyrocatechol violet (Sigma-Aldrich). […] The reaction mixture containing a potential chelator at varied concentrations, 200 μM CuSO4, and 200 μM pyrocatechol violet was incubated at 25 °C for 20 min, and its absorption spectra were recorded using a Shimadzu UV-1650PC spectrophotometer (Shimadzu Corporation, Kyoto, Japan). Copper chelating activity was evaluated by the change in the absorbance of pyrocatechol violet at 632 nm.
# human TYR [5] = target: T1, human TYR; design: method as in PMID 31382682, PMID 23476698, PMID 26914711; conditions: HEK293-TYR; ref [43],[45],[47]; cited from earlier work
# TYR = experiment: In vitro TYR catalytic activity, murine and human TYR given together (abstract); format: biochemical; conditions: range over human and murine TYR preparations
# Method: as §1
# murine TYR = target: T2, murine TYR (Mus musculus, UniProt P11344); experiment: In vitro TYR catalytic activity assay, lysate of α-MSH-stimulated B16F10 cells; format: biochemical; conditions: murine TYR, varying substrate concentrations
# T2 construct: One is the protein extract of B16F10 cells stimulated by α-MSH and thus expresses a high amount of TYR; endogenous in cells; host or cells: B16F10 murine melanoma cells stimulated with α-MSH for 24 h; Triton X-100 lysate supernatant
# T2 sequence (P11344 19-533): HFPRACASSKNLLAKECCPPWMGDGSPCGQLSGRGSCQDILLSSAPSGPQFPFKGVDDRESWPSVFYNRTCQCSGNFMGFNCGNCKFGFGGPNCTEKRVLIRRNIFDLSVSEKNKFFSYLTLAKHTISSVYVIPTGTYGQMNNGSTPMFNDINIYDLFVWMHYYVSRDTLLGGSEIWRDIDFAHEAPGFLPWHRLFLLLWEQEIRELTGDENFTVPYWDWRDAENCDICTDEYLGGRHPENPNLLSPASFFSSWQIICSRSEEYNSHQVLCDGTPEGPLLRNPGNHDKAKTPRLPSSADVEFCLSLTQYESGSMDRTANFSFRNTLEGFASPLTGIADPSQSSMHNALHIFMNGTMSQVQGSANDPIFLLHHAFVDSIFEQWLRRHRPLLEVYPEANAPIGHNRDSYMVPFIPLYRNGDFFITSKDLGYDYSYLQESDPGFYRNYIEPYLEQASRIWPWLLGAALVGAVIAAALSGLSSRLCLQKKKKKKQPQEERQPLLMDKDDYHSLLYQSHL
# Method: as §1
smiles,measurement,setting,value
"O=C(NO)c1ccc(NC(=O)C23CC4CC(CC(C4)C2)C3)cc1 [1a, 4-(Adamantanecarboxamido)-N-hydroxybenzamide]",IC50,[1],3.78 µM
same,IC50,mushroom TYR,12 µM
"O=C(NO)c1ccc(C(=O)NC23CC4CC(CC(C4)C2)C3)cc1 [1b, N1-Adamantyl-N4-hydroxyterephthal amide]",IC50,[1],7.46 µM
same,IC50,mushroom TYR,8.99 µM
"COc1ccc(Cn2ccc3ccc(C(=O)NO)cc32)cc1 [A5, N-Hydroxy-1-((4-methoxyphenyl)methyl)-1H-indole-6-carboxamide]",relative melanin synthesis (OD 400 nm),[2],showed no melanin inhibitory action
same,human TYR inhibitory effect,human TYR [3],potent TYR inhibitory effects; also recorded: showed excellent inhibitory action
"COc1cc2c(NC3CCN(C(C)C)CC3)nc(C3CCCCC3)nc2cc1OCCCN1CCCC1 [C3, UNC0638]",relative viability,B16-F10 cells,showed strong cytotoxicity
"CCN(CC)Cc1ccc2cc(COC(=O)Nc3ccc(C(=O)NO)cc3)ccc2c1.Cl.O [C10, (6-((diethylamino)methyl)naphthalen-2-yl)methyl (4-(hydroxycarbamoyl)phenyl)carbamate hydrochloride hydrate]",human TYR inhibitory effect,human TYR [3],potent TYR inhibitory effects; also recorded: showed excellent inhibitory action
"O=C(C=Cc1cccc(C(=O)NO)c1)NO [H4, N-hydroxy-3-(3-(hydroxyamino)-3-oxo-1-propen-1-yl)-benzamide]",relative viability,B16-F10 cells,without reducing cell viability
same,cytotoxicity (relative viability),B16-F10 cells; drug at various concentrations,showed toxicity at 3 μM and higher concentrations
same,relative melanin synthesis (OD 400 nm),[2],markedly inhibited cellular melanin synthesis
same,melanin synthesis (OD 400),[2]; drug at varied concentrations,attenuated by both drugs in a dose-dependent manner
same,human TYR inhibitory effect,human TYR [3],potent TYR inhibitory effects
"Cn1c(C=CC(=O)NO)ccc1C=CC(=O)c1cccc(F)c1 [M3, 3-(5-(3-(3-Fluorophenyl)-3-oxopropen-1-yl)-1-methyl-1H-pyrrol-2-yl)-N-hydroxy-2-propenamide]",relative melanin synthesis (OD 400 nm),[2],showed no melanin inhibitory action
same,human TYR inhibitory effect,human TYR [3],potent TYR inhibitory effects; also recorded: showed excellent inhibitory action
O=c1cc(CO)occ1O [kojic acid],copper ions chelated,[4],36%
same,IC50,[1],2000 µM
O=c1cc(-c2ccc(O)c(O)c2)oc2cc(OS(=O)(=O)O)cc(O)c12 [luteolin 7-sulfate],IC50,human TYR [5],8.2 µM
O=C(O)/C=C/c1ccc(O)cc1 [p-coumaric acid],IC50,human TYR [5],4 µM
"OC[C@H]1O[C@@H](Oc2ccc(O)cc2)[C@H](O)[C@@H](O)[C@@H]1O [β-arbutin, 4-hydroxyphenyl-β-D-glucopyranoside]",IC50,TYR,500 to 700 µM
same,copper ions chelated,[4],did not show copper chelating activity
same,inhibition type (Lineweaver–Burk plots),murine TYR,competitive inhibition
